Source: publication PMC3648344 (BMC Structural Biology, 2013)

Target: T1, ecMnmC (Escherichia coli, UniProt P77182)
T1 construct: gene mnmC; full-length bifunctional MnmC, 668 residues, ~75 kDa monomer; N-terminal His6 tag removed with thrombin; pET30a-LIC, expressed in E. coli BL21(DE3)
T1 sequence (P77182 1-668): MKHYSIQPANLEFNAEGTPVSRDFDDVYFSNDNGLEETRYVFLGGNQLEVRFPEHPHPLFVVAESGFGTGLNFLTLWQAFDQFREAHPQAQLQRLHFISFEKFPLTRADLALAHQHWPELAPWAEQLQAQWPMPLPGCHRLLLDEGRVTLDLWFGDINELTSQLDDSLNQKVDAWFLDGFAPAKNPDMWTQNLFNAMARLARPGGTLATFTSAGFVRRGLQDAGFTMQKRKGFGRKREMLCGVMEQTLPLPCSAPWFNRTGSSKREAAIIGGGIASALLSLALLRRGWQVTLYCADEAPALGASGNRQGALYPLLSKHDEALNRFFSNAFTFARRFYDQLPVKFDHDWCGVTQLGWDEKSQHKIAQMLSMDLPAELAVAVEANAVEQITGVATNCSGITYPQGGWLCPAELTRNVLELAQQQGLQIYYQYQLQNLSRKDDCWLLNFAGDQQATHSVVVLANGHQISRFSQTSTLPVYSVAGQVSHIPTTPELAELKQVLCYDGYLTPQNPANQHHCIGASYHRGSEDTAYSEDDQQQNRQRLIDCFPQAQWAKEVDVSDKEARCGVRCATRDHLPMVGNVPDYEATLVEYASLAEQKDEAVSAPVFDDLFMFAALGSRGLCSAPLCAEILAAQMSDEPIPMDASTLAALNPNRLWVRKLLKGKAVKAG
Test: X-ray crystal structure, […] Å
Type: binding

| Compound | X-ray crystal structure, 2.55 Å (co-purified FAD, none added, SAM bound, MnmC1 domain site) | X-ray crystal structure, 2.55 Å (crystals soaked with 5 mM SAM, FAD bound, MnmC2 domain site) |
| --- | --- | --- |
| Cc1cc2nc3c(=O)[nH]c(=O)nc-3n(C[C@H](O)[C@H](O)[C@H](O)COP(=O)(O)OP(=O)(O)OC[C@H]3O[C@@H](n4cnc5c(N)ncnc54)[C@H](O)[C@@H]3O)c2cc1C [FAD] | All three MnmC structures unambiguously exhibited bound FAD (Figure 4A) | – |
| C[S+](CC[C@H](N)C(=O)O)C[C@H]1O[C@@H](n2cnc3c(N)ncnc32)[C@H](O)[C@@H]1O (some centres unmarked) [SAM] | – | Our structures show that ecMnmC and ypMnmC bind SAM in an almost identical manner |
